ChEMBL document CHEMBL4651402, “Screening of ~5500 FDA-approved drugs and clinical candidates for anti-SARS-CoV-2 activity” (2021)

System: SARS-CoV-2
Test: microbe, parasite or virus in culture
Conditions: Severe acute respiratory syndrome coronavirus 2, Vero C1008, 48 h

CC[C@@H]1C[C@]1(NC(=O)[C@@H]1C[C@@H]2CN1C(=O)[C@H](C(C)(C)C)NC(=O)OCC(C)(C)CCCCc1cccc3c1CN(C3)C(=O)O2)C(=O)NS(=O)(=O)C1CC1
IC50: > 20 µM
IC50 (read-out: pIC50 (converted)): > 20 µM

NC[C@@H]1OB(O)c2c(OCCCO)cccc21
IC50: > 20 µM
IC50 (read-out: pIC50 (converted)): > 20 µM

C[C@H]1N=C(N)O[C@@H]1c1ccccc1
IC50: > 20 µM
IC50 (read-out: pIC50 (converted)): > 20 µM

COc1c2c(cc3c1C(O)N(C)CC3)OCO2 (stereo unspecified)
IC50: > 20 µM
IC50 (read-out: pIC50 (converted)): > 20 µM

[2H]C([2H])(CCCCCCCC)C([2H])([2H])CCCCCC(=O)OC1CCCn2c1nc(C)c(CCN1CCC(c3noc4cc(F)ccc34)CC1)c2=O (stereo unspecified)
IC50: > 20 µM
IC50 (read-out: pIC50 (converted)): > 20 µM

CCC1CCCC(OC2CCC(N(C)C)C(C)O2)C(C)C(=O)C2=CC3C(C=C(C)C4CC(OC5OC(C)C(OC)C(OC)C5OC)CC43)C2CC(=O)O1.CCC1CCCC(OC2CCC(N(C)C)C(C)O2)C(C)C(=O)C2=CC3C(C=CC4CC(OC5OC(C)C(OC)C(OC)C5OC)CC43)C2CC(=O)O1 (stereo unspecified)
IC50: > 20 µM
IC50 (read-out: pIC50 (converted)): > 20 µM

COc1ccc2c(c1)CCC1C2CCC2(C)C(O)CCC12 (stereo unspecified)
IC50: > 20 µM
IC50 (read-out: pIC50 (converted)): > 20 µM

NCC1O[C@H](O[C@@H]2C(N)C[C@@H](N)C(O[C@H]3OC(CO)[C@@H](O)C(N)C3O)C2O)C(N)C(O)[C@@H]1O (stereo partly specified)
IC50: > 20 µM
IC50 (read-out: pIC50 (converted)): > 20 µM

CC12CCC(C(C(=O)O)C1=O)C2(C)C (stereo unspecified)
IC50: > 20 µM
IC50 (read-out: pIC50 (converted)): > 20 µM

C[N+]12CCC34c5ccccc5N5C(=O)CC6OCC=C(C1)C(CC32)C6C54 (stereo unspecified)
IC50: > 20 µM
IC50 (read-out: pIC50 (converted)): > 20 µM

CC(C)=CCCC(C)C1CCC2(C)C3=C(CCC12C)C1(C)CCC(O)C(C)(C)C1CC3 (stereo unspecified)
IC50: > 20 µM
IC50 (read-out: pIC50 (converted)): > 20 µM

COc1ccc2c(c1OC)C13CCN(C)C(C2)C1(O)CCC(O)C3 (stereo unspecified)
IC50: > 20 µM
IC50 (read-out: pIC50 (converted)): > 20 µM

CCCn1c(=O)c2[nH]c(C3CC4CC3[C@H]3O[C@@H]43)nc2n(CCC)c1=O (stereo partly specified)
IC50: > 20 µM
IC50 (read-out: pIC50 (converted)): > 20 µM

CCO[C@@H]1O[C@@H]2O[C@@]3(C)CC[C@@H]4[C@H](C)CC[C@@H]([C@H]1C)[C@@]24OO3
IC50: > 20 µM
IC50 (read-out: pIC50 (converted)): > 20 µM

O=C(O)C(O)C(O)C(O)C(O)C(O)CO (stereo unspecified)
IC50: > 20 µM
IC50 (read-out: pIC50 (converted)): > 20 µM

CN1[C@@H]2CC[C@H]1CC(NC(=O)n1c(=O)[nH]c3ccccc31)C2 (stereo partly specified)
IC50: > 20 µM
IC50 (read-out: pIC50 (converted)): > 20 µM

CC(=O)OC1C[C@@]2(C)[C@@H](C[C@@H](O)C3[C@]2(C)CC[C@H]2[C@H](C)[C@H](O)CC[C@]32C)/C1=C(\CCC=C(C)C)C(=O)O (stereo partly specified)
IC50: > 20 µM
IC50 (read-out: pIC50 (converted)): > 20 µM

[2H]c1c(C([2H])([2H])[2H])nc(N2CC3CN(C(=O)c4c(F)cccc4-n4nccn4)CC3C2)nc1C([2H])([2H])[2H] (stereo unspecified)
IC50: > 20 µM
IC50 (read-out: pIC50 (converted)): > 20 µM

O=C(O)CCCC[C@H]1SC[C@H]2NC(=O)N[C@H]21
IC50: > 20 µM
IC50 (read-out: pIC50 (converted)): > 20 µM

CC(C)CCCC(C)C1CCC2C3CCC4CC(=O)CCC4(C)C3CCC12C (stereo unspecified)
IC50: > 20 µM
IC50 (read-out: pIC50 (converted)): > 20 µM

CCCCCCCCCCCC[N+](C)(C)CC(=O)O
IC50: > 20 µM
IC50 (read-out: pIC50 (converted)): > 20 µM

CC12CCC3C(CC[C@H]4C[C@H](Cl)CCC34C)C1CCC2=O (stereo partly specified)
IC50: > 20 µM
IC50 (read-out: pIC50 (converted)): > 20 µM

CN(C)CC/C=C1\c2ccccc2CN(C)c2ccccc21
IC50: > 20 µM
IC50 (read-out: pIC50 (converted)): > 20 µM

CCCCCC(C)(O)/C=C/C1CCC(=O)C1CCCCCCC(=O)O (stereo unspecified)
IC50: > 20 µM
IC50 (read-out: pIC50 (converted)): > 20 µM

Cc1nc2n(c(=O)c1CCN1CCC(c3noc4cc(F)ccc34)CC1)CCC[C@@H]2O
IC50: > 20 µM
IC50 (read-out: pIC50 (converted)): > 20 µM

CN1CC(O)C2=CC(=NNC(N)=O)C(=O)C=C21 (stereo unspecified)
IC50: > 20 µM
IC50 (read-out: pIC50 (converted)): > 20 µM

CC(=O)[C@@]1(O)CCC2C3C[C@H](C)C4=CC(=O)CCC4(C)C3CCC21C (stereo partly specified)
IC50: > 20 µM
IC50 (read-out: pIC50 (converted)): > 20 µM

CC1O[C@@H](OC2C(O)[C@H](OCCc3ccc(O)c(O)c3)OC(CO)[C@H]2OC(=O)/C=C/c2ccc(O)c(O)c2)C(O)C(O)[C@H]1O (stereo partly specified)
IC50: > 20 µM
IC50 (read-out: pIC50 (converted)): > 20 µM

CC[C@H](C)n1ncn(-c2ccc(N3CCN(c4ccc(OC[C@H]5CO[C@@](Cn6cncn6)(c6ccc(F)cc6F)O5)cc4)CC3)cc2)c1=O
IC50: > 20 µM
IC50 (read-out: pIC50 (converted)): > 20 µM

C[C@]12C=CC(=O)C=C1CCC1C2C(O)C[C@@]2(C)C1CC[C@]2(O)C(=O)COC(=O)c1cccc(S(=O)(=O)O)c1 (stereo partly specified)
IC50: > 20 µM
IC50 (read-out: pIC50 (converted)): > 20 µM

N[C@H](CCC(=O)NCCS(=O)(=O)O)C(=O)O
IC50: > 20 µM
IC50 (read-out: pIC50 (converted)): > 20 µM

C[C@@H]1CC2C3CCC4=CC(=O)C=CC4(C)[C@@]3(Cl)C(Cl)CC2(C)[C@@]1(O)C(=O)CO (stereo partly specified)
IC50: > 20 µM
IC50 (read-out: pIC50 (converted)): > 20 µM

CC(=O)OC1CCC2(C)C3CC=C4C5CC(C)(C)CCC5(C(=O)O)CC[C@@]4(C)C3(C)CC[C@H]2C1(C)C (stereo partly specified)
IC50: > 20 µM
IC50 (read-out: pIC50 (converted)): > 20 µM

C=C1[C@H](CO)[C@@H](O)C[C@@H]1n1cnc2c(=O)[nH]c(N)nc21
IC50: > 20 µM
IC50 (read-out: pIC50 (converted)): > 20 µM

CCOC(=O)[C@H](CCc1ccccc1)N[C@@H](C)C(=O)N1CCC[C@H]1C(=O)O
IC50: > 20 µM
IC50 (read-out: pIC50 (converted)): > 20 µM

COc1ccc(S(=O)(=O)N2C(=O)[C@@](c3ccccc3OC)(N3C[C@H](O)C[C@H]3C(=O)N(C)C)c3cc(Cl)ccc32)c(OC)c1
IC50: > 20 µM
IC50 (read-out: pIC50 (converted)): > 20 µM

N=C(Nc1ccccc1)Nc1ccccc1
IC50: > 20 µM
IC50 (read-out: pIC50 (converted)): > 20 µM

Nc1cccc2c1C(=O)c1cccc(N)c1C2=O
IC50: > 20 µM
IC50 (read-out: pIC50 (converted)): > 20 µM
